“Also recorded” adds a separate entry of the source. Where two headings read alike, the source gives them in different places.
Legend:
[1] = HepG2 cell cytotoxicity, MTT assay; assay type: cell-based, Human; details: human, HepG2 cells, read-out: CC50 (HepG2) (95% Confidence Intervals)
Protocol: (§1) Human Hepatocyte Carcinoma (HepG2) cells (Sigma Aldrich, UK) were utilized to assess SGC epigenetic probe cell cytotoxicity in the application of the MTT (3-(4,5-dimethylthiazol-2-yl)-2,5-diphenyltetrazolium bromide) assay. Briefly, cells were passaged at 70–80% confluence and seeded (20,000 cells/ 50 μL per well) in a 96-well, black-sided, clear-bottomed falcon plate (Fisher Scientific, UK) with the final plate column (8 wells) being treated as a blank (media only). Following a 24 h incubation (5% CO2, 37°C, humidified), HepG2 cells were then treated with 50 μL of pre-warmed media (37°C) containing SGC EPs/EIs at 200 μM to 0.02 μM (final concentration 100 μM, 10 μM, 1 μM, 0.1 μM and 0.01 μM). Three positive (1% Triton X-100) and negative (1% DMSO) control wells per plate were additionally included.
(§2) After addition of compounds, each plate was then incubated for a further 20 h before application of MTT for assessment of overt compound cytotoxicity using the MTT assay. The MTT assay was read using the POLARstar Omega (BMG LabTech, UK) plate reader at an absorbance of 570 nm. CC50s were calculated in GraphPad Prism.

[2] = tested on: adult male and female schistosome pairs; assay: In vitro adult schistosome screening (WHO/TDR motility, egg counts); assay type: cell-based, Schistosoma mansoni; details: for SELECTIVITY INDEX Adult Females: CC50 HepG2 / adult female EC50; for SELECTIVITY INDEX Adult Males: CC50 HepG2 / adult male EC50; for EC50: Schistosoma mansoni; for EC50 / adult worm motility and IVLE production: 72 h; for adult worm motility and IVLE production: 3.13 μM and 6.25 μM, vs DMSO
Protocol: In vitro screening was replicated three times on different dates to account for any biological variation. Briefly three adult worm pairs/well (48-well tissue culture plate format) were placed into DMEM (Gibco, Paisley, UK) supplemented with 10% (v/v) FCS (Gibco, Paisley, UK), 1% (v/v) L-glutamine (Gibco, Paisley, UK) and an antibiotic mixture (150 Units/ml penicillin and 150 μg/ml streptomycin; Gibco, UK). DMSO (0.5% negative control), AUR (10 μM concentration in 0.5% DMSO; positive control) and two-fold titrations of SGC compounds (50 μM– 6.25 μM or 50 μM– 0.05 μM; in 0.5% DMSO max) were added, and together, these adult worm/compound co-cultures were incubated at 37°C for 72 h in a humidified atmosphere containing 5% CO2. Following compound incubation, WHO/TDR readouts of adult worm motility, abundance of H3K36me2 (LLY-507 and BAY-598 treated worms only) in histone extracts and egg counts/well were recorded at 72 h.

H3K36me2 = H3K36me2 detection in adult worm histone extracts; assay type: cell-based, Schistosoma mansoni; details: adult schistosome pairs, 72 h, vs DMSO
Protocol: LLY-507 (6.25 μM), BAY-598 (25 μM) or siSmp_000700 treated male and female worms (alongside DMSO or siLuc controls; 21 individuals per condition) were homogenized with a TissueLyser (Qiagen) and total histones extracted using the EpiQuik^TM Total Histone Extraction Kit (Epigentek). Levels of H3K36me2 in adult histone extracts were measured using the EpiQuik^TM Global Di-Methyl Histone H3-K36 Quantification Kit (Fluorimetric, Epigentek). Technical duplicates of three biological replicates of each treatment were analysed according to the manufacturer’s instructions. Fluorescent readings (530EX/590EM nm) were obtained using a POLARstar Omega (BMG Labtech, UK) microtiter plate reader. Fluorescent values of the samples were corrected by subtracting the fluorescent readings of the blank (buffer only, provided in the kit). The mean of the adjusted control values (DMSO for LLY-507/BAY-598 treated worms and siLuc for siSmp_000700 treated worms) was set at 100% H3K36me2 and the standard deviation (SD) was calculated from the normalised values.

S. mansoni schistosomula = assay: In vitro schistosomula screening (Roboworm platform), phenotype and motility; assay type: cell-based, Schistosoma mansoni; details: for hit / activity against schistosomula, single-point screen / schistosomula phenotype by microscopic assessment: 10 μM; for hit / activity against schistosomula, single-point screen / EC50 / schistosomula phenotype by microscopic assessment: 72 h; for hit / activity against schistosomula, single-point screen: hit cut-offs phenotype -0.15, motility -0.35; for SELECTIVITY INDEX Schistosomula Phenotype: CC50 HepG2 / schistosomula phenotype EC50; for EC50: Schistosoma mansoni; for SELECTIVITY INDEX Schistosomula Motility: CC50 HepG2 / schistosomula motility EC50
Protocol: Briefly, 384-well tissue culture plates (Perkin Elmer, cat 6007460), containing 20 μl of Basch medium, were wet-stamped using a Biomek NX^P liquid handling platform (Beckman Coulter, UK) with negative (0.625% dimethyl sulfoxide, DMSO) and positive controls (AUR and PZQ at 10 μM final concentration in 0.625% DMSO) as well as 37 SGC compounds (at 10 μM final concentration in 0.625% DMSO). […] To each pre-loaded well (single concentration or titration screens), a total of 100–120 mechanically transformed schistosomula (in 60 μl) were deposited via a WellMate (Thermo Scientific, UK). Schistosomula/compound co-cultures (80 μl in total) were then incubated at 37°C for 72 h in a humidified atmosphere containing 5% CO2. At 72 h, tissue culture plates (containing schistosomula/compound co-cultures) were imaged under the same conditions (37°C in a humidified atmosphere containing 5% CO2) using an ImageXpressXL high content imager (Molecular Devices, UK) with subsequent images processed for phenotype and motility as previously reported and successfully implemented by us at Aberystwyth University. Single point schistosomula screens (10 μM) were repeated two or three times whereas dose response titrations were performed once. Zˊ values obtained from all schistosomula screens ranged from 0.27–0.48 (mean = 0.40) for phenotype and 0.41–0.56 (mean = 0.48) for motility.

miracidia = tested on: miracidia; set-up: method as in Roquis et al., 2018; details: ref Roquis et al., 2018; cited from earlier work
[3] = cited from earlier work
[4] = tested on: in vitro laid eggs (IVLEs) of adult worm pairs; assay: Vitellocyte and egg volume quantification of in vitro laid eggs (LSCM); assay type: cell-based, Schistosoma mansoni; details: 72 h, n = 10 eggs
Source text: Fluorescent microscopic images (10 eggs per treatment) were captured on a Leica TCS SP8 super resolution laser confocal microscope fitted with a 63 X (water immersion) objective using the Leica Application Suite X. Green (egg autofluorescence) fluorescence was visualised with an argon or diode-pumped, solid state (DPSS) laser at 488 nm. DAPI was visualised using a 405 nm blue diode laser. The number of vitellocytes (DAPI^+ cells) and overall volume (mapped by the green autofluorescence) for individual eggs were calculated using IMARIS 7.3 software (Bitplane).

HepG2 cells = assay: HepG2 cell cytotoxicity, MTT assay; assay type: cell-based, Human; details: 20 h, read-out: CC50 (HepG2) (95% Confidence Intervals)
Protocol: as §1, §2

[5] = motility, adult females, read-out: ADULT EC50 (95% Confidence Intervals) Females
[6] = motility, adult males, read-out: ADULT EC50 (95% Confidence Intervals) Males
[7] = two-fold titration 10 μM–0.625 μM, single replicate, approximate, read-out: SCHISTOSOMULA EC50 Phenotype
[8] = two-fold titration 10 μM–0.625 μM, single replicate, approximate, read-out: SCHISTOSOMULA EC50 Motility

Compound	CC50 at 20 h [1] [µM]	SELECTIVITY INDEX Adult Females [2]	SELECTIVITY INDEX Adult Males [2]	EC50 [2, 5] [µM]	EC50 [2, 6] [µM]	hit / activity against schistosomula, single-point screen (S. mansoni schistosomula)	SELECTIVITY INDEX Schistosomula Phenotype (S. mansoni schistosomula)	EC50 (S. mansoni schistosomula; [7]) [µM]	SELECTIVITY INDEX Schistosomula Motility (S. mansoni schistosomula)	further results
CCN(C(=O)CO)[C@H]1CN(C(=NC#N)Nc2cccc(OC(F)F)c2)N=C1c1ccc(Cl)c(Cl)c1 [BAY-598, (S)-N-[1-{N′-Cyano-N-[3-(difluoromethoxy)phenyl]carbamimidoyl}-3-(3,4-dichlorophenyl)-4,5-dihydro-1H-pyrazol-4-yl]-N-ethyl-2-hydroxyacetamide]	> 50	3.02	2.24	16.5	22.4	are hits against schistosomula; also recorded: both active against schistosomula	10.40	4.81	–	reduction in H3K36me2 (H3K36me2; 25 μM): 23%
COc1cc2c(cc1OCCCN1CCCC1)N=C(N)C21CCC1 [A-366, 5'-Methoxy-6'-[3-(1-pyrrolidinyl)propoxy]spiro[cyclobutane-1,3'-indol]-2'-amine]	–	–	–	–	–	–	–	–	–	miracidia to sporocyst transformation (miracidia): completely block
Cc1cn(CCN2CCN(c3ccccc3-c3cc(C#N)cc(C(=O)NCCCN4CCCC4)c3)CC2)c2ccccc12 [LLY-507, 5-(2-(4-(2-(9-methyl-7-aza-bicyclo[4.3.0]nona-1(6),2,4,8-tetraen-7-yl)-ethyl)-piperazin-1-yl)-phenyl)-3-((3-(pyrrolidin-1-yl)-propylamino)-formyl)-benzonitrile]	23.8	3.13	2.55	7.59	9.32	are hits against schistosomula; also recorded: both active against schistosomula	8.24	2.88	8.47	reduction in H3K36me2 (H3K36me2; 6.25 μM): 25%; schistosomula phenotype by microscopic assessment (S. mansoni schistosomula): phenotypes comparable to auranofin; EC50 (S. mansoni schistosomula; [8]): 2.81 µM
O=C(O)CCNc1cc(N2CCc3ccccc3CC2)nc(-c2ccccn2)n1 [GSK-J1]	–	–	–	–	–	None of these chemotype controls demonstrated anti-schistosomula activity	–	–	–	adult worm motility and IVLE production [2]: did not substantially alter these phenotypes; cell permeability ([3]; not told): cell impermeable; number of vitellocytes per egg (packaging into IVLEs) ([4]; 6.25 μM): did not; overall egg volume ([4]; 6.25 μM): no difference
COc1ccccc1C(=O)Nc1cc2c(cc1N1CCCC1)n(C)c(=O)n2C [PFI-4, N-(1,3-dimethyl-2-oxo-6-(pyrrolidin-1-yl)-2,3-dihydro-1H-benzo[d]imidazol-5-yl)-2-methoxybenzamide]	> 50	3.20	3.33	–	–	–	19.18	–	19.52	CC50 (HepG2 cells): > 100 µM; EC50 ([2]; read-out: ADULT EC50 (95% Confidence Intervals) Females): 31.2 µM; EC50 ([2]; read-out: ADULT EC50 (95% Confidence Intervals) Males): 30.1 µM; EC50 (S. mansoni schistosomula; read-out: SCHISTOSOMULA EC50 Motility): 5.12 µM; EC50 (S. mansoni schistosomula; read-out: SCHISTOSOMULA EC50 Phenotype): 5.22 µM
CCOC(=O)CCNc1cc(N2CCc3ccccc3CC2)nc(-c2ccccn2)n1 [GSK-J4, ethyl 3-[[2-pyridin-2-yl-6-(1,2,4,5-tetrahydro-3-benzazepin-3-yl)pyrimidin-4-yl]amino]propanoate]	> 50	8.78	25.49	11.4	3.92	–	18.62	5.37	16.55	CC50 (HepG2 cells): > 100 µM; adult worm motility and IVLE production [2]: led to adult worm motility and IVLE deficiencies; cell permeability [3]: cell-permeable; number of vitellocytes per egg (packaging into IVLEs) ([4]; 0.2 μM): significantly inhibited the packaging; overall egg volume ([4]; 0.2 μM): no difference; schistosomula phenotype by microscopic assessment (S. mansoni schistosomula): phenotypes comparable to auranofin; EC50 (S. mansoni schistosomula; [8]): 6.04 µM
CCCc1cc(C)[nH]c(=O)c1CNC(=O)c1cc(-c2ccnc(N3CCN(C)CC3)c2)cc2c1cnn2C(C)C [GSK343, N-[(1,2-Dihydro-6-methyl-2-oxo-4-propyl-3-pyridinyl)methyl]-1-(1-methylethyl)-6-[2-(4-methyl-1-piperazinyl)-4-pyridinyl]-1H-indazole-4-carboxamide, N-[(6-Methyl-2-oxo-4-propyl-1,2-dihydropyridin-3-yl)methyl]-6-[2-(4-methylpiperazin-1-yl)pyridin-4-yl]-1-(propan-2-yl)-1H-indazole-4-carboxamide]	29.2	1.16	1.17	25.3	25	identified as a hit	9.24	3.17	–	miracidia to sporocyst transformation (miracidia): completely block

From publication PMC6881072, “The repositioning of epigenetic probes/inhibitors identifies new anti-schistosomal lead compounds and chemotherapeutic targets” (PLoS Neglected Tropical Diseases, 2019)
